Source: patent EP1849784A1, “Indoline-substituted pyrazoline compounds, their preparation and use as medicaments” (LABORATORIOS DEL DR. ESTEVE, S.A., priority 2006, dated 2007)

Tests used:
[1] = system: cannabinoid receptors; experiment: Mouse tetrad model, antagonistic effect against Win 55212-2; format: in vivo, Male NMRI mice; conditions: for Antagonistic Effect in (%): against Win 55212-2 (1.25 mg/kg intravenous), substance injected 5 minutes before, tetrad parameter not specified; for Antagonism (%): summary table 1
Excerpt: Substances with affinity for cannabinoid receptors are known to produce a wide range of pharmacological effects. It is also known that intravenous administration of a substance with affinity for cannabinoid receptors in mice produces analgesia , hypothermia, sedation and catalepsy. Individually, none of these effects can be considered as proof that a tested substance has affinity for cannabinoid-receptors, since all of these effects are common for various classes of centrally active agents. However, substances, which show all of these effects, i.e. substances that are active in this so-called tetrad model are considered to have affinity for the cannabinoid receptors. It has further been shown that cannabinoid receptor antagonists are higly effective in blocking the effects of a cannabinoid agonist in the mouse tetrad model.
The tetrad model is described, for example, in the publication of A. C. Howlett et al, International Union of Pharmacology XXVII. Classification of Cannabinoid Receptors, Pharmacol Rev 54,161-202, 2002 and David R. Compton et al., "In-vivo Characterization of a Specific Cannabinoid Receptor Antagonist (SR141716A) :Inhibition of Tetrahydrocannbinol- induced Responses and Apparent Agonist Activity", J. Pharmacol. Exp. Ther. 277 , 2, 586-594, 1996. The corresponding parts of the description are hereby incorporated by reference.
Male NMRI mice with a weight of 20-30 g (Harlan, Barcelona, Spain) are used in all of the following experiments.
Before testing in the behavioral procedures given below, mice are acclimatized to the experimental setting. Pre-Treatment control values are determined for analgesia hot plate latency (in seconds), rectal temperature, sedation and catalepsy.
In order to determine the agonistic activty of the substance to be tested, the mice are injected intravenously with the substance to be tested or the vehicle alone. 15 minutes after injection, latency in hot plate analgesia is measured. Rectal temperature, sedation and catalepsy are measured 20 minutes after injection.
In order to determine the antagonistic activity the identical procedure is used as for the determination of the agonistic effects, but with the difference that the substance to be evaluated for its antagonistic activity is injectected 5 minutes before the intravenous injection of 1.25 mg/kg Win-55,212 a known cannabinoid-receptor agonist.
The hot plate analgesia is determined according to the method described in Woolfe D. et al. "The evaluation of analgesic action of pethidine hydrochloride (Demerol)", J. Pharmacol. Exp. Ther. 80, 300-307,1944. The respective description is hereby incorporated by reference and forms part of the present disclosure.
The mice are placed on a hot plate (Harvard Analgesimeter) at 55 ± 0.5 °C until they show a painful sensation by licking their paws or jumping and the time for these sensations to occur is recorded. This reading is considered the basal value (B). The maximum time limit the mice are allowed to remain on the hot plate in absence of any painful response is 40 seconds in order to prevent skin damage. This period is called the cut-off time (PC).
Fifteen minuts after the administration of the substance to be tested, the mice are again placed on the hot plate and the afore described procedure is repeated. This period is called the post-treatment reading (PT).
The degree of analgesia is calculated from the formula: % MPE of Analgesia = (PT-B)/(PC-B) × 100 [formula] MPE = Maximum possible effect.
Sedation and ataxia is determined according to the method described in Desmet L. K. C. et al. "Anticonvulsive properties of Cinarizine and Flunarizine in Rats and Mice", Arzneim. -Forsch. (Frug Res) 25, 9, 1975. The respective description is hereby incorporated by reference and forms part of the present disclosure.
The chosen scoring system is • 0: no ataxia; • 1: doubful; • 2: obvious calmness and quiet; • 3 pronounced ataxia; prior to as well as after treatment. […]

[2] = molecular target: T1, CB1-Receptor (Homo sapiens, UniProt P21554); experiment: In-vitro determination of affinity to CB1-Receptor (radioligand binding); conditions: transfected human CB1 receptors; radioligand [^3H]-CP55940; read-out: CB1-Receptor Radiologand:[^3H]-CP55940 IC50
T1 construct: purchased Receptor Biology, Inc
Method: The in-vitro determination of the affinity of the inventive quaternary ammonium salts of substituted pyrazoline compounds to CB1/CB2Rezeptors is carried out as described in the publication of Ruth A. Ross, Heather C. Brockie et al., "Agonist-inverse agonist characterization at CB1 and CB2 cannabinoid receptors of L-759633, L759656 and AM630", British Journal of Pharmacology, 126, 665-672, (1999), whereby the transfected human CB1 and CB2 receptors of Receptor Biology, Inc. are used. The radioligand used for both receptors is [^3H]-CP55940. The respective parts of the description are hereby incorporated by reference and forms part of the present disclosure.

T1 sequence (P21554 whole entry): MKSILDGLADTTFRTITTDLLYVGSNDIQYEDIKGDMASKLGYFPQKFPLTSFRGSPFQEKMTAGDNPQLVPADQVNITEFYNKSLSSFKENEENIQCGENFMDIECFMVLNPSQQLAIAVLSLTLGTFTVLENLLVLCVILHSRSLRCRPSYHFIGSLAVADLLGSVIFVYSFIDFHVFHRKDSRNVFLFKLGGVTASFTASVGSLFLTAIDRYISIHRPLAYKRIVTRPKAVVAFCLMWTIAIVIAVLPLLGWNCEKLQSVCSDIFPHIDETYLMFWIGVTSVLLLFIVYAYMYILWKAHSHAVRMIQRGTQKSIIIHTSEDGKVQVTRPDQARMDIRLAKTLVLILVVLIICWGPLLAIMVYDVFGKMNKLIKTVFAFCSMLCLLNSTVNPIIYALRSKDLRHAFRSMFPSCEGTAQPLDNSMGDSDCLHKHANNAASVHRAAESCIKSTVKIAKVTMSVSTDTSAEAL

Structure (SMILES) | Antagonistic Effect in (%) [1] | Antagonism (%) [1] | IC50 [2]
O=C(NN1CCc2ccccc21)C1=NN(c2ccc(Cl)cc2Cl)C(c2ccc(Br)cc2)C1 (stereo not shown) [Example 6, 5-(4-bromophenyl)-1-(2,4-dichlorophenyl)-N-(indolin-1-yl)-4,5-dihydro-1H-pyrazole-3-carboxamide] | 88 ± 10% | 88 ± 10% | 
O=C(NN1CCc2ccccc21)C1=NN(c2ccc(Cl)cc2Cl)C(c2ccc(Cl)cc2)C1 (stereo not shown) [Example 2, 5-(4-chlorophenyl)-1-(2,4-dichlorophenyl)-N-(indolin-1-yl)-4,5-dihydro-1H-pyrazole-3-carboxamide] | 65±15% | 65 ± 15% | 0.1 µM
CC1Cc2ccccc2N1NC(=O)C1=NN(c2ccc(Cl)cc2Cl)C(c2ccc(Cl)cc2)C1 (stereo not shown) [Example 1, 5-(4-chlorophenyl)-1-(2,4-dichlorophenyl)-N-(2-methylindolin-1-yl)-4,5-dihydro-1H-pyrazole-3-carboxamide] | 33% | 33% | 
